According to patent US9233977B2, “Leucine-rich repeat kinase enzyme activity” (Merck Sharp & Dohme Corp., priority 2010, dated 2016):

Molecular target: T1, LRRK2 G2019S mutant kinase (Homo sapiens, UniProt Q5S007, G2019S)
T1 construct: GST; purchased Invitrogen PV4882
Assay: LRRK2 G2019S LanthaScreen TR-FRET kinase assay
Assay type: biochemical
Conditions: LRRK2 G2019S GST-tagged protein, 75 nM Fluorescein-ERM (LRRKtide), 100 μM ATP, 1 hour at room temperature; read-out: IC50 (potency)
Description: The final solvent concentration in the assay was 1% DMSO. […] Generation of raw data and workup of data to derive the IC50 (potency) and maximal inhibition at concentrations tested were performed using Merck's Assay Data Analyzer (ADA) software.
The IC50 (potency) was evaluated for the example compounds presented above.

T1 sequence (Q5S007 whole entry G2019S): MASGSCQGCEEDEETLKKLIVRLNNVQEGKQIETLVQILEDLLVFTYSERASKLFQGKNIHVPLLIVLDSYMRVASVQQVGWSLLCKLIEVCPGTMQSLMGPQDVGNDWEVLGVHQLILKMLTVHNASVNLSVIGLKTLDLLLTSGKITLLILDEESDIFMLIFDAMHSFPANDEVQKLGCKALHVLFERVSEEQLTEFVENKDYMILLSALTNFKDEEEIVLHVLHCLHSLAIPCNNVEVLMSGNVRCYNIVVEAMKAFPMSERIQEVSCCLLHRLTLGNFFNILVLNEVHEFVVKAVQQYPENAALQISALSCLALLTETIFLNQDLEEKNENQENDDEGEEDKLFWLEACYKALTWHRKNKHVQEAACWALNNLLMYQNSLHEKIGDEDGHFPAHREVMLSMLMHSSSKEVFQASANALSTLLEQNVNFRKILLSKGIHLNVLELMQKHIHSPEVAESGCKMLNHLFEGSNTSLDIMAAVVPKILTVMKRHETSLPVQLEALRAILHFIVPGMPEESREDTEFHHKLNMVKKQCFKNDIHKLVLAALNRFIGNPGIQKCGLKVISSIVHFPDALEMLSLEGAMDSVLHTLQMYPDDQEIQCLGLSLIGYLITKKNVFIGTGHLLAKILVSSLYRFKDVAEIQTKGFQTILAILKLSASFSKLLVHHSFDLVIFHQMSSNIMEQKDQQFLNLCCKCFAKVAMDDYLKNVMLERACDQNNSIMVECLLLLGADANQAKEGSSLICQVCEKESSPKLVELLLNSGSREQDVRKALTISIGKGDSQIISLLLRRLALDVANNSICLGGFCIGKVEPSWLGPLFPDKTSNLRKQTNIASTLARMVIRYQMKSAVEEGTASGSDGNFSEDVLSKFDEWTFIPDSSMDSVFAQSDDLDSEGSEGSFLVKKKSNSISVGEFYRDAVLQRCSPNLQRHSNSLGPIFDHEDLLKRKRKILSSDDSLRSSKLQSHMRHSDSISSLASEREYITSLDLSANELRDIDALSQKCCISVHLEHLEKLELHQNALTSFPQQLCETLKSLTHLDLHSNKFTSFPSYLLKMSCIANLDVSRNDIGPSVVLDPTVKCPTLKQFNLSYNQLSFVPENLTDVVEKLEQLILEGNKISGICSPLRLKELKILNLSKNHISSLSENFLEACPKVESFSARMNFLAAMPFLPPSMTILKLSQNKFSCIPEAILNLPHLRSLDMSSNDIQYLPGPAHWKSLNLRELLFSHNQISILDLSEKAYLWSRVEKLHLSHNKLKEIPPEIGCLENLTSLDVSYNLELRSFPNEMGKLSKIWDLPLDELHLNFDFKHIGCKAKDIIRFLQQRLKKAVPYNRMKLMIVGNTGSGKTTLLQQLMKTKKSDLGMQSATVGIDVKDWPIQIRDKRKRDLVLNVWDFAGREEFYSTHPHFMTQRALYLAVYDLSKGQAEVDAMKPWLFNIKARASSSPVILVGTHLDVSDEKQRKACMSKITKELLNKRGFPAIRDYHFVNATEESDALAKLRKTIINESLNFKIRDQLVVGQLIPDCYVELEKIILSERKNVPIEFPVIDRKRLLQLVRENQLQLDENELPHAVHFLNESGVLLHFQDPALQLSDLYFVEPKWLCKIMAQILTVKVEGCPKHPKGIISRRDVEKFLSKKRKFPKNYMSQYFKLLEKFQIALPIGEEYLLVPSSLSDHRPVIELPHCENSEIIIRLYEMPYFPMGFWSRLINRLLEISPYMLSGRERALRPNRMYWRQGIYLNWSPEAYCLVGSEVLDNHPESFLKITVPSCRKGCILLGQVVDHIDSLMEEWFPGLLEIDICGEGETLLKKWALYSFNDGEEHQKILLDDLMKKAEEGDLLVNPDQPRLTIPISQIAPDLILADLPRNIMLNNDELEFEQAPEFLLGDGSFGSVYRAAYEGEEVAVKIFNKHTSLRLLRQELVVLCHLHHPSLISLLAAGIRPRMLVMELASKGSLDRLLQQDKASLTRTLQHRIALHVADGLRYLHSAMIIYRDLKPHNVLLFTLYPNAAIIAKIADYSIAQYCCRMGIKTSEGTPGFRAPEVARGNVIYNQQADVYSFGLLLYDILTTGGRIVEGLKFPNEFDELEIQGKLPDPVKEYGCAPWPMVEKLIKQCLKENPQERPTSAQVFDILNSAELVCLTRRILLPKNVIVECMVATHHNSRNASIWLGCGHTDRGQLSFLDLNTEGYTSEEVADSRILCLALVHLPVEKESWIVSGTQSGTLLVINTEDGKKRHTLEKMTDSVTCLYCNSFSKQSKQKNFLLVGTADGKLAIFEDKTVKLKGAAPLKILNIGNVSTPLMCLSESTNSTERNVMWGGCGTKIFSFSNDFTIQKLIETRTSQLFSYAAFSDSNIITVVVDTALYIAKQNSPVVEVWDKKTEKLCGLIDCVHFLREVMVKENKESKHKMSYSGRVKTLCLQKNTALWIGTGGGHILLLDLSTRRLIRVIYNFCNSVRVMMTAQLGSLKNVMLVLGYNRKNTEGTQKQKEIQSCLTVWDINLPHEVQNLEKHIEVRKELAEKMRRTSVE

Row | Structure (SMILES) | IC50 [nM]
1 | CNc1sc(-c2cc[nH]n2)c2c1C(=O)N[C@@H](C)C2 [Example 99, (6S)-3-(methylamino)-6-methyl-1-(1H-pyrazol-3-yl)-6,7-dihydrothieno[3,4-c]pyridin-4(5H)-one] | 1200
2 | CNc1sc(-c2cc[nH]n2)c2c1C(=O)NC1(CCC1)C2 [Example 94, 3′-(methylamino)-4′-oxo-1′-(1H-pyrazol-3-yl)-7′H-spiro[cyclobutane-1,6′-thieno[3,4-1]pyridine]-4′(5′H)-one] | 550
3 | O=C1NCCc2c(-c3cc[nH]n3)sc(SCCCO)c21 [Example 38] | 640
4 | COCC1Cc2c(-c3cc[nH]n3)sc(SC)c2C(=O)N1 (stereo not drawn) [Example 11, 6-methoxymethyl-3-(methylsulfanyl)-1-(1H-pyrazol-3-yl)-6,7-dihydrothieno[3,4-c]pyridin-4(5)-one] | 340
5 | O=C1NCCc2c(-c3cc[nH]n3)sc(SC3CCCCC3)c21 [Example 45, 3-(cyclohexylsulfanyl)-1-(1H-pyrazol-3-yl)-6,7-dihydrothieno[3,4-c]pyridin-4(5)-one] | 380
6 | O=C1NC(C(F)(F)F)Cc2c(-c3cc[nH]n3)sc(SC3CCCC3)c21 (stereo not drawn) [Example 35, 6-trifluoromethyl-3-(cyclopentylsulfanyl)-1-(1H-pyrazol-3-yl)-6,7-dihydrothieno[3,4-c]pyridin-4(5)-one] | 160
7 | CSc1sc(-c2cc[nH]n2)c2c1C(=O)NC1(CCCC1)C2 [Example 8, 3′-(methylsulfanyl)-4′-oxo-1′-(1H-pyrazol-3-yl)-7′H-spiro[cyclopentane-1,6′-thieno[3,4-1]pyridine]-4′(5′H)-one] | 220
8 | CNc1sc(-c2cc[nH]n2)c2c1C(=O)NCC2 [Example 91, 3-(methylamino)-(1H-pyrazol-3-yl)-6,7-dihydrothieno[3,4-c]pyridin-4(5H)-one] | 1400
9 | CSc1sc(-c2cc[nH]n2)c2c1C(=O)N(C(=O)OC(C)(C)C)C1(CCC1)C2 [Example 6, tert-butyl-6-methyl-3′-(methylsulfanyl)-4′-oxo-1′-(1H-pyrazol-3-yl)-7′H-spiro[cyclobutane-1,6′-thieno[3,4-1]pyridine]-5′(4′H)-carboxylate] | 3100
10 | CCSc1sc(-c2cc[nH]n2)c2c1C(=O)NCC2 [Example 42, 3-ethylsulfanyl-1-(1H-pyrazol-3-yl)-6,7-dihydrothieno[3,4-c]pyridin-4(5)-one] | 360
11 | CCC(C)CSc1sc(-c2cc[nH]n2)c2c1C(=O)NCC2 (stereo not drawn) [Example 44, 3-[(2-methyl)butylsulfanyl]-1-(1H-pyrazol-3-yl)-6,7-dihydrothieno[3,4-c]pyridin-4(5)-one] | 130
12 | C[C@H]1Cc2c(-c3cc[nH]n3)sc(SCC(=O)O)c2C(=O)N1 [Example 51, (6S)-6-methyl-1-{[4-oxo-1-(1H-pyrazol-3-yl)-4,5,6,7-tetrahydrothieno[3,4-c]pyridin-3-yl]sulfanyl}acetic acid] | 2200
13 | CC1CNC(=O)c2c(SC3CCCC3)sc(-c3cc[nH]n3)c21 (stereo not drawn) [Example 36, 7-methyl-3-(cyclopentylsulfanyl)-1-(1H-pyrazol-3-yl)-6,7-dihydrothieno[3,4-c]pyridin-4(5)-one] | 52
14 | CSc1sc(-c2cc[nH]n2)c2c1C(=O)N(CCCCOc1ccccc1)CC2 [Example 68, 3-(methylsulfanyl)-5-(4-phenoxybutyl)-1-(1H-pyrazol-3-yl)-6,7-dihydrothieno[3,4-c]pyridin-4(5)-one] | 3200
15 | CSc1sc(-c2cc[nH]n2)c2c1C(=O)N(C(=O)OC(C)(C)C)C(C)C2 (stereo not drawn) [Example 4] | 4800
16 | O=C1NCCc2c(-c3cc[nH]n3)sc(SCCO)c21 [Example 47] | 580
17 | CSc1sc(-c2cc[nH]n2)c2c1C(=O)NC(C1CC1)C2 (stereo not drawn) [Example 13, 6-cyclopropyl-3-(methylsulfanyl)-1-(1H-pyrazol-3-yl)-6,7-dihydrothieno[3,4-c]pyridin-4(5)-one] | 450
18 | CNc1sc(-c2cc[nH]n2)c2c1C(=O)NCC2C (stereo not drawn) [Example 96, 3-(methylamino)-7-methyl-1-(1H-pyrazol-3-yl)-6,7-dihydrothieno[3,4-c]pyridin-4(5H)-one] | 370
19 | CSc1sc(-c2cc[nH]n2)c2c1C(=O)NCC2Cc1ccccc1 (stereo not drawn) [Example 25, 7-benzyl-3-(methylsulfanyl)-1-(1H-pyrazol-3-yl)-6,7-dihydrothieno[3,4-c]pyridin-4(5H)-one] | 150
20 | CSc1sc(-c2cc[nH]n2)c2c1C(=O)N[C@H](c1ccc(F)cc1)C2 [Example 18, (6S)-3-(methylsulfanyl)-6-(4-fluorophenyl)-1-(1H-pyrazol-3-yl)-6,7-dihydrothieno[3,4-c]pyridin-4(5)-one] | 85
21 | CC1CNC(=O)c2c(NC3CCCC3)sc(-c3cc[nH]n3)c21 (stereo not drawn) [Example 86, 3-(cyclopentylamino)-7-methyl-1-(1H-pyrazol-3-yl)-6,7-dihydrothieno[3,4-e]pyridin-4(5H)-one] | 120
22 | O=C1NC(Cc2ccccc2)Cc2c(-c3cc[nH]n3)sc(NC3CCCC3)c21 (stereo not drawn) [Example 92, 3-(cyclopentylamino)-6-benzyl-1-(1H-pyrazol-3-yl)-6,7-dihydrothieno[3,4-c]pyridin-4(5H)-one] | 290
23 | O=C1NC2(CCC2)Cc2c(-c3cc[nH]n3)sc(SC3CCCC3)c21 [Example 32, 3′-(cyclopentylsulfanyl)-4′-oxo-1′-(1H-pyrazol-3-yl)-7′H-spiro[cyclobutane-1,6′-thieno[3,4-1]pyridine]-4′(5′H)-one] | 140
24 | C[C@@H]1Cc2c(-c3cc[nH]n3)sc(SCC(=O)O)c2C(=O)N1 [Example 52, (6R)-6-methyl-1-{[4-oxo-1-(1H-pyrazol-3-yl)-4,5,6,7-tetrahydrothieno[3,4-c]pyridin-3-yl]sulfanyl}acetic acid] | 2700
25 | CCCSc1sc(-c2cc[nH]n2)c2c1C(=O)NCC2 [Example 43, 3-propylsulfanyl-1-(1H-pyrazol-3-yl)-6,7-dihydrothieno[3,4-c]pyridin-4(5)-one] | 250

Second part, the compound after the results:

Row | IC50 [nM] | Structure (SMILES)
26 | 3300 | CSc1sc(-c2cc[nH]n2)c2c1C(=O)N(C)CC2 [Example 75, 5-methyl-3-(methylsulfanyl)-1-(1H-pyrazol-3-yl)-6,7-dihydrothieno[3,4-c]pyridin-4(5)-one]
27 | 2100 | CSc1sc(-c2cc[nH]n2)c2c1C(=O)N(Cc1cccnc1)CC2 [Example 61, 5-[(3-pyridinyl)methyl]-3-(methylsulfanyl)-1-(1H-pyrazol-3-yl)-6,7-dihydrothieno[3,4-c]pyridin-4(5)-one]
28 | 7500 | CSc1sc(-c2cc[nH]n2)c2c1C(=O)N(CCC1CCCCC1)CC2 [Example 71, 3-(methylsulfanyl)-5-[(2-cyclohexyl)ethyl]-1-(1H-pyrazol-3-yl)-6,7-dihydrothieno[3,4-c]pyridin-4(5)-one]
29 | 2500 | CSc1sc(-c2cc[nH]n2)c2c1C(=O)N(CCCCC#N)CC2 [Example 70, 5-[3-(methylsulfanyl)-4-oxo-1-(1H-pyrazol-3-yl)-6,7-dihydrothieno[3,4H)-yl]pentanenitrile]
30 | 3400 | CSc1sc(-c2cc[nH]n2)c2c1C(=O)N(CC1CCCNC1)CC2 (stereo not drawn) [Example 65, 3-(methylsulfanyl)-1-(1H-pyrazol-3-yl)-5-(piperidin-3-ylmethyl)-6,7-dihydrothieno[3,4-c]pyridin-4(5H)-one]
31 | 460 | CSc1sc(-c2cc[nH]n2)c2c1C(=O)NCC2 [Example 1, 3-(Methylsulfanyl)-1-(1H-pyrazol-3-yl)-6,7-dihydrothieno[3,4-c]pyridin-4(5H)-one]
32 | 2200 | CCN1CCc2c(-c3cc[nH]n3)sc(SC)c2C1=O [Example 76, 5-ethyl-3-(methylsulfanyl)-1-(1H-pyrazol-3-yl)-6,7-dihydrothieno[3,4-c]pyridin-4(5)-one]
33 | 5700 | CSc1sc(-c2cc[nH]n2)c2c1C(=O)N(CCc1ccccn1)CC2 [Example 78, 3-(methylsulfanyl)-5-[2-(2-pyridyl)ethyl]-1-(1H-pyrazol-3-yl)-6,7-dihydrothieno[3,4-c]pyridin-4(5)-one]
34 | 350 | CSc1sc(-c2cc[nH]n2)c2c1C(=O)NC1(CC1)C2 [Example 7, 3′-(methylsulfanyl)-4′-oxo-1′-(1H-pyrazol-3-yl)-7′H-spiro[cyclopropanc-1,6′-thieno[3,4-1]pyridine]-4′(5′H)-one]
35 | 3300 | CSc1sc(-c2cc[nH]n2)c2c1C(=O)N(c1ccc(C)cc1)CC2 [Example 83]
36 | 160 | CSc1sc(-c2cc[nH]n2)c2c1C(=O)NC[C@@H]2C [Example 21, (7R)-7-methyl-3-(methylsulfanyl)-1-(1H-pyrazol-3-yl)-6,7-dihydrothieno[3,4-c]pyridin-4(5)-one]
37 | 1200 | CSc1sc(-c2cc[nH]n2)c2c1C(=O)N(CCc1ccccc1)CC2 [Example 55, 3-(methylsulfanyl)-5-(2-phenethyl)-1-(1H-pyrazol-3-yl)-6,7-dihydrothieno[3,4-c]pyridin-4(5)-one]
38 | 9200 | CSc1sc(-c2cc[nH]n2)c2c1C(=O)N(CCN1CCOCC1)CC2 [Example 67, 3-(methylsulfanyl)-5-[2-(morpholin-4-yl)ethyl]-1-(1H-pyrazol-3-yl)-6,7-dihydrothieno[3,4-c]pyridin-4(5)-one]
39 | 3100 | CSc1sc(-c2cc[nH]n2)c2c1C(=O)N(c1ccccc1F)CC2 [Example 85, 5-(2-fluorophenyl)-3-(methylsulfanyl)-1-(1H-pyrazol-3-yl)-6,7-dihydrothieno[3,4-c]pyridin-4(5)-one]
40 | 3500 | CSc1sc(-c2cc[nH]n2)c2c1C(=O)N(CCCc1ccccc1)CC2 [Example 79]
41 | 1700 | CSc1sc(-c2cc[nH]n2)c2c1C(=O)N(CCCCO)CC2 [Example 60, 5-(4-hydroxybutyl)-3-(methylsulfanyl)-1-(1H-pyrazol-3-yl)-6,7-dihydrothieno[3,4-c]pyridin-4(5)-one]
42 | 260 | CSc1sc(-c2cc[nH]n2)c2c1C(=O)NC(C)C2 (stereo not drawn) [Example 3, 6-methyl-3-(methylsulfanyl)-1-(1H-pyrazol-3-yl)-6,7-dihydrothieno[3,4-c]pyridin-4(5)-one]
